Test system: Pseudomonas aeruginosa PAM1001
Test: microbe, parasite or virus in culture
Assay type: cell-based
In short: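 Checkerboard broth microdilution (NCCLS) with the efflux pump inhibitor and levofloxacin, each diluted along one axis of the plate, in Mueller Hinton Broth. Inoculum 5×10^5 CFU/ml from early-log culture; incubation 20 h at 35° C. Growth read at 650 nm and visually.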

[1] = Table 1, EPI Conc. μg/ml (number not given; column between 10 and 40 μg/ml)
[2] = Table 2, EPI Conc. μg/ml (number not given; column between 10 and 40 μg/ml)
[3] = Table 3, EPI Conc. μg/ml (number not given; column between 10 and 40 μg/ml)
[4] = Table 4, EPI Conc. μg/ml (number not given; column between 10 and 40 μg/ml)

Compound | Levofloxacin MIC Against P. aeruginosa PAM1001 in Presence of Efflux Pump Inhibitor (EPI), Minimum Inhibitory Concentration (Table 1, EPI Conc. 0 μg/ml) [mg/L] | Levofloxacin MIC Against P. aeruginosa PAM1001 in Presence of Efflux Pump Inhibitor (EPI), Minimum Inhibitory Concentration (Table 1, EPI Conc. 0.625 μg/ml) [mg/L] | Levofloxacin MIC Against P. aeruginosa PAM1001 in Presence of Efflux Pump Inhibitor (EPI), Minimum Inhibitory Concentration (Table 1, EPI Conc. 5 μg/ml) [mg/L] | Levofloxacin MIC Against P. aeruginosa PAM1001 in Presence of Efflux Pump Inhibitor (EPI), Minimum Inhibitory Concentration (Table 1, EPI Conc. 10 μg/ml) [mg/L] | Levofloxacin MIC Against P. aeruginosa PAM1001 in Presence of Efflux Pump Inhibitor (EPI), Minimum Inhibitory Concentration (Table 1, EPI Conc. 40 μg/ml) [mg/L] | Levofloxacin MIC Against P. aeruginosa PAM1001 in Presence of Efflux Pump Inhibitor (EPI), Minimum Inhibitory Concentration [1] [mg/L] | Levofloxacin MIC Against P. aeruginosa PAM1001 in Presence of Efflux Pump Inhibitor (EPI), Minimum Inhibitory Concentration (Table 2, EPI Conc. 0 μg/ml) [mg/L] | Levofloxacin MIC Against P. aeruginosa PAM1001 in Presence of Efflux Pump Inhibitor (EPI), Minimum Inhibitory Concentration (Table 2, EPI Conc. 0.625 μg/ml) [mg/L] | Levofloxacin MIC Against P. aeruginosa PAM1001 in Presence of Efflux Pump Inhibitor (EPI), Minimum Inhibitory Concentration (Table 2, EPI Conc. 5 μg/ml) [mg/L] | Levofloxacin MIC Against P. aeruginosa PAM1001 in Presence of Efflux Pump Inhibitor (EPI), Minimum Inhibitory Concentration (Table 2, EPI Conc. 10 μg/ml) [mg/L] | Levofloxacin MIC Against P. aeruginosa PAM1001 in Presence of Efflux Pump Inhibitor (EPI), Minimum Inhibitory Concentration (Table 2, EPI Conc. 40 μg/ml) [mg/L] | Levofloxacin MIC Against P. aeruginosa PAM1001 in Presence of Efflux Pump Inhibitor (EPI), Minimum Inhibitory Concentration [2] [mg/L] | Levofloxacin MIC Against P. aeruginosa PAM1001 in Presence of Efflux Pump Inhibitor (EPI), Minimum Inhibitory Concentration (Table 3, EPI Conc. 0 μg/ml) [mg/L] | Levofloxacin MIC Against P. aeruginosa PAM1001 in Presence of Efflux Pump Inhibitor (EPI), Minimum Inhibitory Concentration (Table 3, EPI Conc. 0.625 μg/ml) [mg/L] | Levofloxacin MIC Against P. aeruginosa PAM1001 in Presence of Efflux Pump Inhibitor (EPI), Minimum Inhibitory Concentration (Table 3, EPI Conc. 5 μg/ml) [mg/L] | Levofloxacin MIC Against P. aeruginosa PAM1001 in Presence of Efflux Pump Inhibitor (EPI), Minimum Inhibitory Concentration (Table 3, EPI Conc. 10 μg/ml) [mg/L] | Levofloxacin MIC Against P. aeruginosa PAM1001 in Presence of Efflux Pump Inhibitor (EPI), Minimum Inhibitory Concentration (Table 3, EPI Conc. 40 μg/ml) [mg/L] | Levofloxacin MIC Against P. aeruginosa PAM1001 in Presence of Efflux Pump Inhibitor (EPI), Minimum Inhibitory Concentration [3] [mg/L] | Levofloxacin MIC Against P. aeruginosa PAM1001 in Presence of Efflux Pump Inhibitor (EPI), Minimum Inhibitory Concentration (Table 4, EPI Conc. 0 μg/ml) [mg/L] | Levofloxacin MIC Against P. aeruginosa PAM1001 in Presence of Efflux Pump Inhibitor (EPI), Minimum Inhibitory Concentration (Table 4, EPI Conc. 0.625 μg/ml) [mg/L] | other results
D-Ornithyl-β-(N-phenylpropyl)alanine quinoline-3-amide [Compound 22 (Table 3)] | 4 | 4 | 2 | 1 | 0.06 | 0.50 | 4 | 4 | 2 | 1 | 0.06 | 0.125 | 4 | 4 | 1 | 0.50 | 0.015 | 0.25 | 4 | 4 | Levofloxacin MIC Against P. aeruginosa PAM1001 in Presence of Efflux Pump Inhibitor (EPI), Minimum Inhibitory Concentration (Table 1, EPI Conc. […]): 4 mg/L; Levofloxacin MIC Against P. aeruginosa PAM1001 in Presence of Efflux Pump Inhibitor (EPI), Minimum Inhibitory Concentration (Table 2, EPI Conc. […]): 4 mg/L; Levofloxacin MIC Against P. aeruginosa PAM1001 in Presence of Efflux Pump Inhibitor (EPI), Minimum Inhibitory Concentration (Table 4, EPI Conc. 5 μg/ml): 1 mg/L; Levofloxacin MIC Against P. aeruginosa PAM1001 in Presence of Efflux Pump Inhibitor (EPI), Minimum Inhibitory Concentration (Table 4, EPI Conc. 10 μg/ml): 0.125 mg/L; Levofloxacin MIC Against P. aeruginosa PAM1001 in Presence of Efflux Pump Inhibitor (EPI), Minimum Inhibitory Concentration (Table 4, EPI Conc. 40 μg/ml): 0.125 mg/L; Levofloxacin MIC Against P. aeruginosa PAM1001 in Presence of Efflux Pump Inhibitor (EPI), Minimum Inhibitory Concentration [4]: 0.125 mg/L
D-Lysyl-β-N-(Ethylthioethyl)alanine 2-Naphthylamide Trifluoroacetate [Example 25] | 4 | 4 | 1 | 0.06 | 0.06 | 0.06 | 4 | 4 | 1 | 0.06 | 0.06 | 0.06 | 4 | 4 | 2 | 1 | 0.25 | 0.50 | 4 | 4 | Levofloxacin MIC Against P. aeruginosa PAM1001 in Presence of Efflux Pump Inhibitor (EPI), Minimum Inhibitory Concentration (Table 1, EPI Conc. […]): 4 mg/L; Levofloxacin MIC Against P. aeruginosa PAM1001 in Presence of Efflux Pump Inhibitor (EPI), Minimum Inhibitory Concentration (Table 3, EPI Conc. […]): 4 mg/L; Levofloxacin MIC Against P. aeruginosa PAM1001 in Presence of Efflux Pump Inhibitor (EPI), Minimum Inhibitory Concentration (Table 4, EPI Conc. 5 μg/ml): 0.125 mg/L; Levofloxacin MIC Against P. aeruginosa PAM1001 in Presence of Efflux Pump Inhibitor (EPI), Minimum Inhibitory Concentration (Table 4, EPI Conc. 10 μg/ml): 0.06 mg/L; Levofloxacin MIC Against P. aeruginosa PAM1001 in Presence of Efflux Pump Inhibitor (EPI), Minimum Inhibitory Concentration (Table 4, EPI Conc. 40 μg/ml): 0.125 mg/L; Levofloxacin MIC Against P. aeruginosa PAM1001 in Presence of Efflux Pump Inhibitor (EPI), Minimum Inhibitory Concentration [4]: 0.125 mg/L
D-Lysyl-β-N-(Cyclopropylmethyl)alanine Quinoline-2-amide Trifluoroacetate [Example 29] | 4 | 4 | 1 | 0.125 | 0.125 | 0.125 | 4 | 4 | 0.125 | 0.06 | 0.06 | 0.06 | 4 | 4 | 2 | 0.25 | 0.008 | 0.03 | 4 | 4 | Levofloxacin MIC Against P. aeruginosa PAM1001 in Presence of Efflux Pump Inhibitor (EPI), Minimum Inhibitory Concentration (Table 3, EPI Conc. […]): 4 mg/L; Levofloxacin MIC Against P. aeruginosa PAM1001 in Presence of Efflux Pump Inhibitor (EPI), Minimum Inhibitory Concentration (Table 4, EPI Conc. 5 μg/ml): 0.06 mg/L; Levofloxacin MIC Against P. aeruginosa PAM1001 in Presence of Efflux Pump Inhibitor (EPI), Minimum Inhibitory Concentration (Table 4, EPI Conc. 10 μg/ml): 0.015 mg/L; Levofloxacin MIC Against P. aeruginosa PAM1001 in Presence of Efflux Pump Inhibitor (EPI), Minimum Inhibitory Concentration (Table 4, EPI Conc. 40 μg/ml): 0.015 mg/L; Levofloxacin MIC Against P. aeruginosa PAM1001 in Presence of Efflux Pump Inhibitor (EPI), Minimum Inhibitory Concentration [4]: 0.015 mg/L
C[C@H]1COc2c(N3CCN(C)CC3)c(F)cc3c(=O)c(C(=O)O)cn1c23 [levofloxacin, reference compound] |  |  |  |  |  |  |  |  |  |  |  |  |  |  |  |  |  |  |  |  | MIC (Pseudomonas aeruginosa, PAM1001, read-out: MIC of levofloxacin against P. aeruginosa PAM1001): 4 mg/L
D-Ornithyl-D-β-(3-quinolinyl)alanine 2,3-trimethylenepyridyl-5-amide [Compound 41 (Table 2)] | 4 | 4 | 0.125 | 0.06 | 0.015 | 0.015 | 4 | 4 | 2 | 1 | 0.50 | 0.25 | 4 | 4 | 4 | 2 | 0.50 | 1 | 4 | 4 | Levofloxacin MIC Against P. aeruginosa PAM1001 in Presence of Efflux Pump Inhibitor (EPI), Minimum Inhibitory Concentration (Table 1, EPI Conc. […]): 2 mg/L; Levofloxacin MIC Against P. aeruginosa PAM1001 in Presence of Efflux Pump Inhibitor (EPI), Minimum Inhibitory Concentration (Table 2, EPI Conc. […]): 4 mg/L; Levofloxacin MIC Against P. aeruginosa PAM1001 in Presence of Efflux Pump Inhibitor (EPI), Minimum Inhibitory Concentration (Table 3, EPI Conc. […]): 4 mg/L; Levofloxacin MIC Against P. aeruginosa PAM1001 in Presence of Efflux Pump Inhibitor (EPI), Minimum Inhibitory Concentration (Table 4, EPI Conc. 5 μg/ml): 2 mg/L; Levofloxacin MIC Against P. aeruginosa PAM1001 in Presence of Efflux Pump Inhibitor (EPI), Minimum Inhibitory Concentration (Table 4, EPI Conc. 10 μg/ml): 0.50 mg/L; Levofloxacin MIC Against P. aeruginosa PAM1001 in Presence of Efflux Pump Inhibitor (EPI), Minimum Inhibitory Concentration (Table 4, EPI Conc. […]): 4 mg/L; Levofloxacin MIC Against P. aeruginosa PAM1001 in Presence of Efflux Pump Inhibitor (EPI), Minimum Inhibitory Concentration [4]: 0.50 mg/L
